# Assay results: ChEMBL document CHEMBL3045323, “Synthesis, anti-inflammatory and anticancer activity evaluation of some mono- and bis-Schiffs bases” (2012)
# Starred links: 1 amine or outer side, 2 acyl side, 3 side chain; linkers in the order of their positions; H or OH if unused. Positions of bridges follow the written chain, without caps; N, C: chain ends. Non-standard residues stand in square brackets, D forms with d. Residues, ends and D or L forms follow the SMILES beside them. Chains are numbered I, II in the order given. Actinocin(1to9) = Cc1c2oc3c(C)ccc(C(=O)[*:2])c3nc-2c(C(=O)[*:1])c(N)c1=O; NMeV = CN[C@H](C(=O)O)C(C)C; Sar = CNCC(=O)O
# Legend:
# Format in all cases: functional
# NCI-H522 = assay: Cytotoxicity against Homo sapiens (human) NCI-H522 cells assessed as growth inhibition at 1 x 10^-5 M after 48 hr by SRB assay; details: NCI-H522, 48 h, read-out: GI
# HCT-15 = assay: Cytotoxicity against Homo sapiens (human) HCT15 cells assessed as growth inhibition at 1 x 10^-5 M after 48 hr by SRB assay; details: HCT-15, 48 h, read-out: GI
# PA-1 = assay: Cytotoxicity against Homo sapiens (human) PA1 cells assessed as growth inhibition at 1 x 10^-5 M after 48 hr by SRB assay; details: PA-1, 48 h, read-out: GI
# T47D = assay: Cytotoxicity against Homo sapiens (human) T47D cells assessed as growth inhibition at 1 x 10^-5 M after 48 hr by SRB assay; details: read-out: GI
# HepG2 = assay: Cytotoxicity against Homo sapiens (human) HepG2 cells assessed as growth inhibition at 1 x 10^-5 M after 48 hr by SRB assay; details: HepG2, 48 h, read-out: GI
# Rattus norvegicus = assay: Anti-inflammatory activity inRattus norvegicus albino (rat) assessed as inhibition of carrageenan-induced paw edema at 50 mg/kg, po administered for 30 min followed by carrageenan challenge measured after 1 to 3 hr relative to control
Compound,inhibition of growth at 10 µM (NCI-H522),inhibition of growth at 10 µM (HCT-15),inhibition of growth at 10 µM (PA-1),inhibition of growth at 10 µM (T47D),inhibition of growth at 10 µM (HepG2),inhibition in vivo at 50 mg/kg (Rattus norvegicus)
"Cc1c2oc3c(C)ccc(C(=O)N[C@@H]4C(=O)N[C@H](C(C)C)C(=O)N5CCC[C@H]5C(=O)N(C)CC(=O)N(C)[C@@H](C(C)C)C(=O)O[C@@H]4C)c3nc-2c(C(=O)N[C@@H]2C(=O)N[C@H](C(C)C)C(=O)N3CCC[C@H]3C(=O)N(C)CC(=O)N(C)[C@@H](C(C)C)C(=O)O[C@@H]2C)c(N)c1=O [DACTINOMYCIN] (I: T[dV]P[Sar][NMeV] / II: T[dV]P[Sar][NMeV]; ester I:1-I:C, II:1-II:C; linker I:N-II:N via Actinocin(1to9))",59%,49%,93%,21%,42%,–
COc1ccc(OC)c(/C=N/CC2CCCO2)c1 (stereo unspecified),15%,0%,38%,33%,25%,16%
C(=N\CC1CCCO1)/c1ccco1 (stereo unspecified),15%,4%,16%,12%,20%,26%
COc1ccc(OC)c(/C=N/c2n[nH]c(/N=C/c3cc(OC)ccc3OC)n2)c1,15%,5%,53%,41%,10%,22%
COc1cc(/C=N/CCCn2ccnc2)ccc1O,22%,1%,16%,15%,11%,0%
COc1ccc(OC)c(/C=N/CCCN2CCN(CCC/N=C/c3cc(OC)ccc3OC)CC2)c1,13%,7%,62%,24%,8%,20%
COc1ccc(OC)c(/C=N/CCCn2ccnc2)c1,24%,3%,25%,29%,24%,0%
COc1cc(/C=N/CC2CCCO2)ccc1O (stereo unspecified),17%,24%,13%,25%,1%,14%
COc1cc(/C=N/c2n[nH]c(/N=C/c3ccc(O)c(OC)c3)n2)ccc1O,9%,4%,40%,38%,14%,26%
O=P1(N(CCCl)CCCl)NCCCO1 (stereo unspecified) [CYCLOPHOSPHAMIDE ANHYDROUS],7%,7%,21%,36%,24%,–
C(=N\CCCN1CCN(CCC/N=C/c2ccco2)CC1)/c1ccco1,5%,6%,43%,9%,10%,30%
C(=N\c1n[nH]c(/N=C/c2ccco2)n1)/c1ccco1,26%,3%,48%,30%,25%,11%
COc1cc(/C=N/CCN2CCNCC2)ccc1O,25%,4%,39%,25%,30%,18%
CC(C)Cc1ccc(C(C)C(=O)O)cc1 (stereo unspecified) [IBUPROFEN],–,–,–,–,–,39%
O=c1[nH]cc(F)c(=O)[nH]1 [FLUOROURACIL],51%,21%,27%,22%,33%,–
COc1cc(/C=N/CCCN2CCN(CCC/N=C/c3ccc(O)c(OC)c3)CC2)ccc1O,1%,5%,51%,18%,3%,25%
C[C@@H]1C[C@@H]([C@H](O)CC2CC(=O)NC(=O)C2)C(=O)[C@@H](C)C1 [CYCLOHEXIMIDE],20%,5%,82%,30%,14%,–
COc1ccc(OC)c(/C=N/CCN2CCNCC2)c1,49%,4%,16%,28%,22%,21%
C(=N\CCN1CCNCC1)/c1ccco1,19%,5%,35%,21%,18%,22%
C(=N\CCCn1ccnc1)/c1ccco1,29%,1%,13%,16%,1%,28%
